According to US9150566B2, “2-(1,2,3-triazol-2-yl)benzamide and 3-(1,2,3-triazol-2-YL)picolinamide derivatives as orexin receptor antagonists” (ACTELION PHARMACEUTICALS LTD., priority 2011, dated 2015):
Where two headings read alike, the source gives them in different places.

Key:
rat [1] = details: cited from earlier work
fasted hungry rats = fasted hungry rats exposed to food odors; cited from earlier work
rat [2] = details: rat fear-potentiated startle paradigm; cited from earlier work
mouse = mouse model of depression, administered chronically; cited from earlier work
rats [3] = details: rats treated with the compound; cited from earlier work
rat [4] = details: rat model; cited from earlier work
rats [5] = details: cited from earlier work
[6] = system: amyloid precursor protein transgenic mice; details: after acute sleep restriction, APP transgenic mice; cited from earlier work
humans = details: cited from earlier work
[7] = Measurement of brain and systemic concentration after oral administration; assay type: in vivo; details: rat, brain, male wistar rats, oral 100 mg/kg, read-out: brain concentration [B]; for concentration at 3 h: formulated in 100% PEG400, sampled at 3 h; for concentration at 1 h: formulated in 10% PEG400/90% MC0.5%, sampled at 1 h
Procedure: Measurement of Brain and Systemic Concentration after Oral Administration:
In order to assess brain penetration, the concentration of the compound is measured in plasma ([P]), and brain ([B]), sampled 1 h or 3 h (or at different time points) following oral administration (100 mg/kg) to male wistar rats (n=3). The compounds are formulated either in 100% PEG 400 or 10% PEG400/90% MC0.5%. Samples are collected in the same animal at the same time point (+/−5 min). Blood is sampled from the vena cava caudalis into containers with EDTA as anticoagulant and centrifuged to yield plasma. Brain is sampled after cardiac perfusion of 10 mL NaCl 0.9% and homogenized into one volume of cold phosphate buffer (pH 7.4). All samples are extracted with MeOH and analyzed by LC-MS/MS. Concentrations are determined with the help of calibration curves. Inter-individual variations between the three rats were limited. Particular compounds of the present invention tested as described above gave brain concentrations ([B]) as shown in Table 16 below; wherein the compounds of Examples 11-37 and 94 were formulated in 100% PEG400 and sampled at 3 h. All other examples below were formulated in 10% PEG400/90% MC0.5% and sampled at 1 h.

CYP3A4 = CYP3A4 (Homo sapiens (Human), UniProt P08684); assay: CYP3A4 inhibition assay (human liver microsomes, testosterone 6β-hydroxylation); details: read-out: CYP3A4 IC50, 40 μM testosterone
human orexin-1 receptor = human orexin-1 receptor (Homo sapiens (Human), UniProt O43613); assay: In vitro intracellular calcium measurements (FLIPR), antagonistic activity on orexin-1 receptor; assay type: cell-based
Summary of the method: (§1)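 CHO cells expressing human orexin-1 or orexin-2 receptor were seeded overnight, preincubated with antagonist for 120 min, then stimulated with agonist in a FLIPR Tetra.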

human orexin-2 receptor = human orexin-2 receptor (Homo sapiens (Human), UniProt O43614); assay: In vitro intracellular calcium measurements (FLIPR), antagonistic activity on orexin-2 receptor; assay type: cell-based; details: read-out: IC50 OX2
Summary of the method: as §1

rodents = details: cited from earlier work
[8] = CHO cells expressing human orexin-1 receptor, FLIPR, 3 nM orexin-A agonist, 120 min antagonist incubation, geometric mean if determined several times, read-out: IC50 OX1
[9] = CHO cells expressing human orexin-2 receptor, FLIPR, 3 nM orexin-A agonist, 120 min antagonist incubation, geometric mean if determined several times

Chain of human orexin-2 receptor (O43614 whole entry): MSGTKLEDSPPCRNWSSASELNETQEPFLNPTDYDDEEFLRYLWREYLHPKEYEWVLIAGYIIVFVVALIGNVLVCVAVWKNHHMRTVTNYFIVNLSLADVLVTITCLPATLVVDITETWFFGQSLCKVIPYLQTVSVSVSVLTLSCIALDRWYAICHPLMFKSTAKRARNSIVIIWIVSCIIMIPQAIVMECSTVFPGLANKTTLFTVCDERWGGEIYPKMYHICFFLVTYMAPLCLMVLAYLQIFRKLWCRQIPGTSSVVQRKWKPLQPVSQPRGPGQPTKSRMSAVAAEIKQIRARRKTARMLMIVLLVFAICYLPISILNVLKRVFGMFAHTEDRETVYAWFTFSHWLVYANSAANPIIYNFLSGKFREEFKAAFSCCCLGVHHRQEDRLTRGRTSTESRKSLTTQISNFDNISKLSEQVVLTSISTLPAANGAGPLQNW
Chain of CYP3A4 (P08684 whole entry): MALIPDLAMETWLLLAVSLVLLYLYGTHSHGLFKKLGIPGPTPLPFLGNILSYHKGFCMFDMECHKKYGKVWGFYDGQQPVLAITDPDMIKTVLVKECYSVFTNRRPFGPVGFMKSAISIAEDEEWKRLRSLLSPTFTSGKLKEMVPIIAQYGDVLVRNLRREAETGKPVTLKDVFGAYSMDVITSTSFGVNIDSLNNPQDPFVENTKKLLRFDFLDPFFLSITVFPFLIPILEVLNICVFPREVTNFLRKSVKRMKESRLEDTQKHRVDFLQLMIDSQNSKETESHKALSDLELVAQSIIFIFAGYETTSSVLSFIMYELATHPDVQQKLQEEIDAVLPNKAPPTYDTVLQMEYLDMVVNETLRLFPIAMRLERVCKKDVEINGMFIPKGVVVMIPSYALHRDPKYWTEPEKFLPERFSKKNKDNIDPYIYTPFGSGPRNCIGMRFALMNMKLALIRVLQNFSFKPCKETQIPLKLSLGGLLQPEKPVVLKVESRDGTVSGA
Chain of human orexin-1 receptor (O43613 whole entry): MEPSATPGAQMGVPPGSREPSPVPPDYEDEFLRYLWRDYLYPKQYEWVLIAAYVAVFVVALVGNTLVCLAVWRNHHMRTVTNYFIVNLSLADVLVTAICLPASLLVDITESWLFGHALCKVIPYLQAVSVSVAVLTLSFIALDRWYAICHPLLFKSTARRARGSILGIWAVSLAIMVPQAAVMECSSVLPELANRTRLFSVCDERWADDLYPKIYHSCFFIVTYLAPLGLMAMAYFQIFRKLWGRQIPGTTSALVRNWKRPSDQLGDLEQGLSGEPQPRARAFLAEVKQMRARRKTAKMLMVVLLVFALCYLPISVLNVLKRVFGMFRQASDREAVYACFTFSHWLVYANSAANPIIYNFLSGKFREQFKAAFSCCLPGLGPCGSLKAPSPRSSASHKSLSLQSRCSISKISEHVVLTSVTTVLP

| IC50 (CYP3A4) [µM] | IC50 (human orexin-1 receptor; [8]) [nM] | IC50 (human orexin-2 receptor; [9]) [nM] | concentration at 1 h [7] [ng/g] | Compound | other results |
| --- | --- | --- | --- | --- | --- |
| – | – | – | – | CNC(=O)[C@@H](c1ccccc1)N1CCc2cc(OC)c(OC)cc2[C@@H]1CCc1ccc(C(F)(F)F)cc1 [(2R)-2-{(1S)-6,7-dimethoxy-1-[2-(4-trifluoromethyl-phenyl)-ethyl]-3,4-dihydro-1H-isoquinolin-2-yl}-N-methyl-2-phenyl-acetamide] | alertness (active wake and locomotion) (rat [1]): decrease alertness; time spent in REM and NREM sleep (rat [1]): dose-dependently increase the time spent in both REM and NREM sleep; natural activation induced by orexin A (fasted hungry rats): attenuate the natural activation induced by orexin A; activity in animal model of conditioned fear (rat [2]): active; antidepressant-like activity (mouse): induce antidepressant-like activity; learning and memory (rats [3]): intact declarative and non-declarative learning and memory; pharmacological activity, nicotine self-administration (rat [4]): displayed pharmacological activity; cardiovascular responses to conditioned fear and novelty exposure (rats [5]): attenuated cardiovascular responses to conditioned fear and novelty exposure; brain levels of amyloid-beta and plaque deposition [6]: decreased brain levels of amyloid-beta (Aβ) as well as AO plaque deposition; clinical efficacy, primary insomnia (humans): showed clinical efficacy |
| 20 | 1 | 25 | – | Cc1cc(C(=O)N2CCOC[C@H]2Cc2cccc(-n3nccn3)c2)c(-n2nccn2)cc1C [Example 35, (4,5-Dimethyl-2-[1,2,3]triazol-2-yl-phenyl)-[(R)-3-(3-[1,2,3]triazol-2-yl-benzyl)-morpholin-4-yl]-methanone] | concentration at 3 h [7]: 59 ng/g |
| 17 | 4 | 209 | – | COc1cc(C(=O)N2CCOC[C@H]2Cc2cccc(-n3nccn3)c2)c(-n2nccn2)cc1C [Example 37, (5-Methoxy-4-methyl-2-[1,2,3]triazol-2-yl-phenyl)-[(R)-3-(3-[1,2,3]triazol-2-yl-benzyl)-morpholin-4-yl]-methanone] | concentration at 3 h [7]: 881 ng/g |
| 7.5 | 2 | 133 | 1380 | O=C(c1ccc(C(F)(F)F)cc1-n1nccn1)N1CCOC[C@H]1Cc1cccc(-n2nccn2)c1 [Example 76, [(R)-3-(3-[1,2,3]Triazol-2-yl-benzyl)-morpholin-4-yl]-(2-[1,2,3]triazol-2-yl-4-trifluoromethyl-phenyl)-methanone] | – |
| 16 | 1 | 96 | 1610 | O=C(c1ccc(Cl)cc1-n1nccn1)N1CCOC[C@H]1Cc1cccc(-n2nccn2)c1 [Example 77, (4-Chloro-2-[1,2,3]triazol-2-yl-phenyl)-[(R)-3-(3-[1,2,3]triazol-2-yl-benzyl)-morpholin-4-yl]-methanone] | – |
| 30 | 6 | 3580 | – | Cc1ccc(C(=O)N2CCOC[C@H]2Cc2cc(-n3nccn3)ccc2F)c(-n2nccn2)c1C [Example 94, (3,4-Dimethyl-2-[1,2,3]triazol-2-yl-phenyl)-[(R)-3-(2-fluoro-5-[1,2,3]triazol-2-yl-benzyl)-morpholin-4-yl]-methanone] | concentration at 3 h [7]: 654 ng/g |
| 13 | 6 | 289 | 529 | C[C@@H]1CN(C(=O)c2ccccc2-n2nccn2)[C@H](Cc2cccc(-n3nccn3)c2)CO1 [Example 100, [(2R,5R)-2-Methyl-5-(3-[1,2,3]triazol-2-yl-benzyl)-morpholin-4-yl]-(2-[1,2,3]triazol-2-yl-phenyl)-methanone] | – |
| 21 | 21 | 899 | 5930 | C[C@@H]1CN(C(=O)c2ccccc2-n2nccn2)[C@H](Cc2cc(-n3nccn3)ccc2F)CO1 [Example 116, [(2R,5R)-5-(2-Fluoro-5-[1,2,3]triazol-2-yl-benzyl)-2-methyl-morpholin-4-yl]-(2-[1,2,3]triazol-2-yl-phenyl)-methanone] | – |
| 20 | 3 | 191 | 5830 | O=C(c1ccc(Cl)cc1-n1nccn1)N1CCOC[C@H]1Cc1cc(-n2nccn2)ccc1F [Example 130, (4-Chloro-2-[1,2,3]triazol-2-yl-phenyl)-[(R)-3-(2-fluoro-5-[1,2,3]triazol-2-yl-benzyl)-morpholin-4-yl]-methanone] | – |
| – | – | – | – | Cn1c(SCC(=O)N2CCC[C@H]2C(=O)Nc2ccccc2-c2ccccc2)nc2ccccc21 [N-biphenyl-2-yl-1-{[(1-methyl-1H-benzimidazol-2-yl)sulfanyl]acetyl}-L-prolinamide] | behavioral and molecular changes induced by repeated amphetamine administration (rodents): reduced behavioral (locomotor sensitization) and molecular (transcriptional responses) changes induced by repeated amphetamine administration; nicotine-reinstatement for a conditioned reinforcer (rodents): inhibited nicotine-reinstatement for a conditioned reinforcer |

| Compound | IC50 (CYP3A4) [µM] | IC50 (human orexin-1 receptor; [8]) [nM] | IC50 (human orexin-2 receptor; [9]) [nM] | concentration at 1 h [7] [ng/g] | other results |
| --- | --- | --- | --- | --- | --- |
| Cc1cccc(C(=O)N2CCOC[C@H]2Cc2cccc(-n3nccn3)c2)c1-n1nccn1 [Example 64, (3-Methyl-2-[1,2,3]triazol-2-yl-phenyl)-[(R)-3-(3-[1,2,3]triazol-2-yl-benzyl)-morpholin-4-yl]-methanone] | 33 | – | 784 | 2370 | IC50 (human orexin-1 receptor): 6 nM |
| Cc1ccc(C(=O)N2CCOC[C@H]2Cc2cccc(-n3nccn3)c2)c(-n2nccn2)c1C [Example 92, (3,4-Dimethyl-2-[1,2,3]triazol-2-yl-phenyl)-[(R)-3-(3-[1,2,3]triazol-2-yl-benzyl)-morpholin-4-yl]-methanone] | 44 | – | – | 1970 | IC50 (human orexin-1 receptor; read-out: IC50 OX1): 3 nM; IC50 (human orexin-2 receptor): 2630 nM |
| Cc1ccc(C(=O)N2CCOC[C@H]2Cc2cc(-n3nccn3)ccc2Cl)c(-n2nccn2)c1 [Example 120, [(R)-3-(2-Chloro-5-[1,2,3]triazol-2-yl-benzyl)-morpholin-4-yl]-(4-methyl-2-[1,2,3]triazol-2-yl-phenyl)-methanone] | 19 | – | – | 5130 | IC50 (human orexin-1 receptor; read-out: IC50 OX1): 3 nM; IC50 (human orexin-2 receptor): 531 nM |
